In brackets after ≈: the same amount, converted by molar mass.
What was measured:
PDE 8 = settings: read-out: IC50, PDE 8; cited from earlier work
PDE 1 = settings: cited from earlier work
humanized mhT1R3 = target: T1, humanized mhT1R3 (Homo sapiens, UniProt Q7RTX0, A109T/A120V/A176D/A197V/A198V/A228S/A231N/A248T/A280V/A282S/A302S/A412V/A417V/A46T/A537T/C375D/D124S/D249S/D250G/D364H/D419E/D470T/D491G/D88A/DEL352-352/DEL488-489/E172D/E199T/E203N/E217D/E356N/E45S/E481Q/E505D/E525K/E545Q/F540P/F555L/G168S/G205S/G311T/G314N/G355L/G360D/G414H/G438R/G439D/G463S/G50T/G542N/H261R/H278R/H281Y/H332P/I485M/I536F/INS376MLQNLSSG/K32Q/K339E/K422L/K494V/K86G/L173R/L245Q/L272V/L29F/L354S/L385Q/L433M/L458M/L483S/L71F/L74M/M151L/M315I/M318V/M31A/N285S/N386L/N532H/N68L/P112S/P246H/P335S/P416H/P420H/P441T/P60I/Q221E/Q257L/Q317R/Q330L/Q336H/Q359L/Q372R/Q418S/Q504K/Q531K/R123Q/R247D/R252Q/R291G/R30K/R357A/R443Q/R467V/R473T/R479Q/R482Q/R486Y/R498Q/R52N/R550K/R553A/R556P/R560K/R56Q/S251Q/S267K/S289H/S290H/S392A/S446A/S447E/S464P/S477T/S490P/S53Q/S559P/S58N/S67P/T195Q/T346A/T377L/T390I/T434S/T480L/T63N/V152I/V277A/V366M/V36I/V381L/V393T/V437A/V465T/V61P/W72L); assay: T1R3 pharmacological block with clofibrate diet (male reproduction); assay type: in vivo, mouse; settings: clofibrate diet 300 mg/kg body weight, line 7c and WT males
T1 construct: the extracellular domain is of mouse origin and the transmembrane and intracellular domains of human origin; mouse T1R3 extracellular domain (fusion partner replacing the human extracellular domain); expressed in transfected cells; host or cells: transgenic Line 7c mice (T1R3-/-, Gus-/-, mhT1R3+/-)
T1 sequence (Q7RTX0 with tags, fused parts or gaps L29F/R30K/M31A/K32Q/V36I/E45S/A46T/G50T/R52N/S53Q/R56Q/S58N/P60I/V61P/T63N/S67P/N68L/L71F/W72L/L74M/K86G/D88A/A109T/P112S/A120V/R123Q/D124S/M151L/V152I/G168S/E172D/L173R/A176D/T195Q/A197V/A198V/E199T/E203N/G205S/E217D/Q221E/A228S/A231N/L245Q/P246H/R247D/A248T/D249S/D250G/S251Q/R252Q/Q257L/H261R/S267K/L272V/V277A/H278R/A280V/H281Y/A282S/N285S/S289H/S290H/R291G/A302S/G311T/G314N/M315I/Q317R/M318V/Q330L/H332P/P335S/Q336H/K339E/T346A/DEL352-352/L354S/G355L/E356N/R357A/Q359L/G360D/D364H/V366M/Q372R/C375D/INS376MLQNLSSG/T377L/V381L/L385Q/N386L/T390I/S392A/V393T/A412V/G414H/P416H/A417V/Q418S/D419E/P420H/K422L/L433M/T434S/V437A/G438R/G439D/P441T/R443Q/S446A/S447E/L458M/G463S/S464P/V465T/R467V/D470T/R473T/S477T/R479Q/T480L/E481Q/R482Q/L483S/I485M/R486Y/DEL488-489/S490P/D491G/K494V/R498Q/Q504K/E505D/E525K/Q531K/N532H/I536F/A537T/F540P/G542N/E545Q/R550K/R553A/F555L/R556P/S559P/R560K limits assumed): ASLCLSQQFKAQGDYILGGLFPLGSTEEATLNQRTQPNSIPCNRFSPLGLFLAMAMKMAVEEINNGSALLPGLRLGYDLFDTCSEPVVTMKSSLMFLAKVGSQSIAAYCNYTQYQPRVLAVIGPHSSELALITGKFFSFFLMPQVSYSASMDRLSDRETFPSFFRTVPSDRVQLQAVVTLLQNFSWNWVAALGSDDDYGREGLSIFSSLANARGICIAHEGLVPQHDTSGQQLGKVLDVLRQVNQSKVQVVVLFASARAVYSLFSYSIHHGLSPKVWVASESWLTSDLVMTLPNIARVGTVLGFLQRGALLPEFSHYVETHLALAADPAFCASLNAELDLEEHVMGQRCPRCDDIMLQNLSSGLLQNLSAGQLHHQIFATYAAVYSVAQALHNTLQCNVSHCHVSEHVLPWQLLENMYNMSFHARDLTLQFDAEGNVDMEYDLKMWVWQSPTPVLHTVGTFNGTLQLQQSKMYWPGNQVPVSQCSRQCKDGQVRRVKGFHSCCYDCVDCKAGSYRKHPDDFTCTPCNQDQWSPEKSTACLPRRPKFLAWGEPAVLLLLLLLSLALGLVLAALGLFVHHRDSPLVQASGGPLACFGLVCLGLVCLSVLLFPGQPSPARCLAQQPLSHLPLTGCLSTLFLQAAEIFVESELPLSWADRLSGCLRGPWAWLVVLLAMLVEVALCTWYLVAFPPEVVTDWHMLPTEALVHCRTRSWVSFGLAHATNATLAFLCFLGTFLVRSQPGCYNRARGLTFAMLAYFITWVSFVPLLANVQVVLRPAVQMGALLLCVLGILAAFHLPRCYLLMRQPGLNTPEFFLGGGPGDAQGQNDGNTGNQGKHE
Description: Matched groups (six males each) of WT and line 7c mice (expressing the chimerical mhT1R3 transgene on a T1R3/α-gustducin double-null background), 3-6 months old, were fed the indicated diets for 4-6 weeks. Each genotype was tested in two groups, one on the regular diet and one on a test diet with clofibrate. An additional group of males stayed on the test diet for another 4-6 weeks, during which time they were mated with WT females to determine whether the pharmacological intervention was effective. Then the animals were allowed to recover on the regular diet for an additional 4 weeks after the end of the treatment (half-time for total sperm turnover in mice), and again were tested for their reproductive capacity, and then their tissues were analyzed. […]
We observed spermatozoa after clofibrate treatment represent cells that were able to escape the inhibition of clofibric acid, most likely due to very fast clearance and fluctuating levels in rodents. […] Therefore, we measured sperm concentration as an indicator of efficiency of the pharmacological block and to be able to determine the concentration that results in effective sterility. We analyzed testicular morphology, sperm production, sperm motility and sperm function in in vitro fertilization after feeding these animals with the lipid lowering drug clofibrate. […]

solubility = assay type: physicochemical
PDE 4 = settings: quantity not given; read-out: inhibition of PDE 4; cited from earlier work

OCCN(CCO)c1nc(N2CCCCC2)c2nc(N(CCO)CCO)nc(N3CCCCC3)c2n1 [Dipyridamole]
IC50 (PDE 8): 4 to 9 µM

CCOC(=O)C1=C[C@]2(CC)CCCN3CCc4c(n1c1ccccc41)[C@@H]32 [Vinpocetine]
IC50 (PDE 1): 10 µM

CCOC(=O)C(C)(C)Oc1ccc(Cl)cc1 [clofibrate]
effect on the health of the animals (humanized mhT1R3): no apparent effect
solubility (solubility): 5000 µg/mL (≈ 20.6 mM)

Reference: patent publication US20150045610A1, “METHOD OF MODIFYING SPERMATOGENESIS, SPERMIOGENESIS AND/OR FERTILITY IN MAMMALS” (Monell Chemical Senses Center, priority 2012, published 2015)
